Assay results from patent US20230135524A1, “ARYL HYDANTOIN HETEROCYCLES AND METHODS OF USE” (The United States of America,as represented by the …, priority 2020, published 2023).

Columns and labels:
DU145 = assay: IncuCyte % confluence cell growth inhibition, DU145; format: cell-based; conditions: Homo sapiens, DU-145, read-out: IC50 values (μM), DU145
Experimental: (§1) Images were then analyzed to discern the % confluence of cells in each well. IC50 values were calculated from dose response curves of the % cell growth inhibition relative to DMSO control at the same time point per each cell line.

Aldosterone Receptor = target: T1, Aldosterone Receptor (UniProt P22199); assay: Radioligand competition binding, [3H] aldosterone; conditions: competition with [3H] aldosterone, 20 hours
T1 sequence (P22199 1-981): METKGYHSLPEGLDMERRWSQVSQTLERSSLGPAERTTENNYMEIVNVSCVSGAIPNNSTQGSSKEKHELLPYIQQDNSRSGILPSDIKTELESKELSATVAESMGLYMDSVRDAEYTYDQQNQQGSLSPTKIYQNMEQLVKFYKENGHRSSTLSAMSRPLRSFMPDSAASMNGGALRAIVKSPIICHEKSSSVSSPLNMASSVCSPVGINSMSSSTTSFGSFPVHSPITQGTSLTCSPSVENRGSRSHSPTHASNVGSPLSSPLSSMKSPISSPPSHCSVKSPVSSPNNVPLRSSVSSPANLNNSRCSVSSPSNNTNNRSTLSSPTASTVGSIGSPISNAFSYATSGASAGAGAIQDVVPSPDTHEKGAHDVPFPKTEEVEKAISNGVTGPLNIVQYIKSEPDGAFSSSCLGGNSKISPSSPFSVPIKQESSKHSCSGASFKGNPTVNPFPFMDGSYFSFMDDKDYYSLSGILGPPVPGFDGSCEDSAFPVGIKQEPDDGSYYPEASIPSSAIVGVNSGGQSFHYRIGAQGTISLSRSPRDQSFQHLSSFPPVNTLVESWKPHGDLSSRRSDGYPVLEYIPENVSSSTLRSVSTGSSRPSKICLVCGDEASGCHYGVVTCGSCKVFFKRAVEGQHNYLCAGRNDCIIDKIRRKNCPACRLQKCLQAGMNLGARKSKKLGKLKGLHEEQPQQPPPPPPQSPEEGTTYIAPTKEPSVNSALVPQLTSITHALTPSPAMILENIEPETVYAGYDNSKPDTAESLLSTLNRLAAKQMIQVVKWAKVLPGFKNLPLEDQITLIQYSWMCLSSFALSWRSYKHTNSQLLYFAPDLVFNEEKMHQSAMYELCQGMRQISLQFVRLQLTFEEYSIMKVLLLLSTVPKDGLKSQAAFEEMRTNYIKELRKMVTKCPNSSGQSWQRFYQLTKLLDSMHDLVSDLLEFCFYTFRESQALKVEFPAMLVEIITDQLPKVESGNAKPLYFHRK
Experimental: (§2) Binding assays were performed via competition with radioactive ligands across a range of dose of compounds 15a and 19d. For aldosterone binding, the aldosterone receptor was incubated for 20 hours with […] aldosterone. Similarly, the androgen receptor was co-incubated with 0.5 nM of [^3H] methyltrienolone, the estrogen receptor alpha was co-incubated with 0.5 nM [^3H] estradiol, the glucocorticoid receptor with 0.5 nM [^3H] dexamethasone, and the progesterone receptor with 0.5 nM [^3H] progesterone as parent ligands.

Glucocorticoid Receptor = target: T2, Glucocorticoid Receptor (Homo sapiens, UniProt P04150); assay: Radioligand competition binding, [3H] dexamethasone; conditions: competition with 0.5 nM [3H] dexamethasone
T2 sequence (P04150 1-777): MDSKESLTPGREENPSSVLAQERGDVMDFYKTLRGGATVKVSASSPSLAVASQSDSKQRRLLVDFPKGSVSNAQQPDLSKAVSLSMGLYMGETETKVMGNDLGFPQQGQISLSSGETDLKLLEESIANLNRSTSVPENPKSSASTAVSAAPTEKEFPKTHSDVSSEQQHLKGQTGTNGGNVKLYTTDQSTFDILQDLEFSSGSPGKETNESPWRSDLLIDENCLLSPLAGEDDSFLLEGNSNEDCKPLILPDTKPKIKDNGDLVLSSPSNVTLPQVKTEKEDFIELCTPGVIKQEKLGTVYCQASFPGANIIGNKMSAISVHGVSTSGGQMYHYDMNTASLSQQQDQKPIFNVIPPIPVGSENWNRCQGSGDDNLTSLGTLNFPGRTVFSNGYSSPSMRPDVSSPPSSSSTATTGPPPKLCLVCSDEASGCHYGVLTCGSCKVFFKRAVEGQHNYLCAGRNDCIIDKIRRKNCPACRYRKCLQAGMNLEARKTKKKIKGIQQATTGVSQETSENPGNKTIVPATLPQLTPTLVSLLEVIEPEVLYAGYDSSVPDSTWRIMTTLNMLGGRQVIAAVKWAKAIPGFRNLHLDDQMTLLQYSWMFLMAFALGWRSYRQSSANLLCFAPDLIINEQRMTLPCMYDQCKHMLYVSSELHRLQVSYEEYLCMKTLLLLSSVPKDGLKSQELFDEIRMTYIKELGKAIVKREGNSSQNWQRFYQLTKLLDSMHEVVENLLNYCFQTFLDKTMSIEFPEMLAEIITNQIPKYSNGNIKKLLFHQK
Experimental: as §2

LNCaP = assay: IncuCyte % confluence cell growth inhibition, LNCaP; format: cell-based; conditions: Homo sapiens, read-out: IC50 values (μM), LNCaP
Experimental: as §1

LNCAP AR = assay: IncuCyte % confluence cell growth inhibition, LNCAP AR; format: cell-based; conditions: read-out: IC50 values (μM), LNCAP AR
Experimental: as §1

Estrogen Receptor alpha = Estrogen Receptor alpha (Homo sapiens, UniProt P03372); assay: Radioligand competition binding, [3H] estradiol; conditions: competition with 0.5 nM [3H] estradiol
Experimental: as §2

PC3 = assay: IncuCyte % confluence cell growth inhibition, PC3; format: cell-based; conditions: Homo sapiens, PC-3, read-out: IC50 values (μM), PC3
Experimental: as §1

LNCaP ARF876L = assay: IncuCyte % confluence cell growth inhibition, LNCaP ARF876L; format: cell-based; conditions: Homo sapiens, AR-positive, AR mutation F876L, % cell growth inhibition relative to DMSO
Experimental: as §1

22Rv1 = assay: IncuCyte % confluence cell growth inhibition, 22Rv1; format: cell-based; conditions: Homo sapiens, 22Rv1, read-out: IC50 values (μM), 22Rv1
Experimental: as §1

LAPC4 = assay: IncuCyte % confluence cell growth inhibition, LAPC4; format: cell-based; conditions: Homo sapiens, LAPC4, read-out: IC50 values (μM), LAPC4
Experimental: as §1

LNCaP ARin vivo = assay: IncuCyte % confluence cell growth inhibition, LNCaP ARin vivo; format: cell-based; conditions: Homo sapiens, read-out: IC50 values (μM), LNCaP ARin vivo
Experimental: as §1

Sequence of Estrogen Receptor alpha (P03372 whole entry): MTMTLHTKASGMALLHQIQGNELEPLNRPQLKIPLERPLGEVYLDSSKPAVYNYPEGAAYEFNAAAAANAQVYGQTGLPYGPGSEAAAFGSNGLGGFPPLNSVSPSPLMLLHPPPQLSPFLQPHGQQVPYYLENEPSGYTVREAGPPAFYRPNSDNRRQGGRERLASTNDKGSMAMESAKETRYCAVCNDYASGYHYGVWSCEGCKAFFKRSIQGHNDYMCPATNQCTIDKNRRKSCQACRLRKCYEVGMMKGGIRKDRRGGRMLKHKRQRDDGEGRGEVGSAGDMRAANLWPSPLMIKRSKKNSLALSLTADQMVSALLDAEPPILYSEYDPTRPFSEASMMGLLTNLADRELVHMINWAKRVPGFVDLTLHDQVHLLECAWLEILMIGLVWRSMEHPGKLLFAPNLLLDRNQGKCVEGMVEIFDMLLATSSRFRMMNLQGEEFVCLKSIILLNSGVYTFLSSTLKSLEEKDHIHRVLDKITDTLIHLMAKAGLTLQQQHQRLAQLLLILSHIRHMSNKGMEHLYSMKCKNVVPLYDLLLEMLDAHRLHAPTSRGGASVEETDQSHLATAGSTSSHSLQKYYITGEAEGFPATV

SMILES	IC50 (DU145) [µM]	IC50 (Aldosterone Receptor) [nM]	IC50 (Glucocorticoid Receptor) [nM]	IC50 (LNCaP) [µM]	IC50 (LNCAP AR) [µM]	IC50 (Estrogen Receptor alpha) [nM]	IC50 (PC3) [µM]	IC50 (LNCaP ARF876L) [µM]	IC50 (22Rv1) [µM]	IC50 (LAPC4) [µM]	IC50 (LNCaP ARin vivo) [µM]
CC1(C)C(=O)N(c2ccc(C#N)c(C(F)(F)F)c2)C(=S)N1Cc1ccc(-c2c[nH]nn2)cc1F [Compound 19d, 4-(3-(2-Fluoro-4-(1H-1,2,3-triazol-4-yl)benzyl)-4,4-dimethyl-5-oxo-2-thioxoimidazolidin-1-yl)-2-(trifluoromethyl)benzonitrile]	53.6	> 10000	> 10000	35.7	28.2	> 10000	44.8	22.3	26.9	16.3	28.2
CC1(C)C(=O)N(c2ccc(C#N)c(C(F)(F)F)c2)C(=S)N1Cc1ccc(-c2c[nH]nn2)cc1 [Compound 15a, 4-(3-(4-(1H-1,2,3-triazol-4-yl)benzyl)-4,4-dimethyl-5-oxo-2-thioxoimidazolidin-1-yl)-2-(trifluoromethyl)benzonitrile]	37.3	> 10000	> 10000	30.5	17	> 10000	59.8	21	18.3	13.3	18.5
